# Source: patent publication US12721800B2, “Phosphonates and N-halamines compositions for tartar removal” (O.Y.M. INNOVATION LTD., priority 2021, dated 2026)
# How the values were obtained:
# [1] = Comparison of succinyl tetraphosphonate and two industrial pyrophosphates on human teeth having mature tartar; conditions: for mature tartar removal (images before and after treatment): 1 mg/ml in PBS, pH=7, 5 ml, shaken 10 min, then brushed 2 min
# Experimental: The effect of succinyl tetraphosphonate and two types of industrial pyrophosphates on human teeth having mature tartar as were evaluated as followed:
# Human teeth were incubated and shaken in 5 ml solution of PBS with SUTP ((a) see structure below), sodium pyrophosphate tetrabasic ((b) see structure below) and sodium pyrophosphate dibasic ((c) see structure below) (1 mg/ml, pH=7) for 10 min. Then, the teeth were brushed by a toothbrush for 2 min. Images were captured before and after treatment FIG. 6 (with SUTP), FIG. 7 (with sodium pyrophosphate tetrabasic), and FIG. 8 (with sodium pyrophosphate dibasic).
# [2] = Effect of SUTP, poly(StBP) NPs and γ-Glu-BP on human teeth (incubation, brushing, overnight re-incubation); conditions: for precipitate of tartar during incubation: 1 mg/ml aqueous solution, 4 ml, pH=4, RT, after 15 min of incubation; for cleaning of teeth from tartar (photographs): 1 mg/ml, pH=4, RT 1 hr, brushing, new solution overnight, washed with DDW
# Experimental: The effect of SUTP (Example 1), poly(StBP) NPs (Example 4), and γ-Glu-BP (Example 2) on human teeth was evaluated as followed:
# Teeth were incubated in three separate aqueous solutions of: SUTP, poly(StBP) NPs, and γ-Glu-BP (1 mg/ml, 4 ml, pH=4) at RT for 1 hr. […] The teeth were then brushed by a toothbrush to remove the remain tartar layer on the teeth and were incubated in new solutions of SUTP, poly(StBP) NPs, and γ-Glu-BP overnight. Then, the teeth were washed by DDW and were photographed.
# [3] = Effect of halamine NPs and SUTP on mature tartar removal on human teeth (10 min stirring, then brushing)
# Experimental: The effect of halamines nanoparticles (as presented in Table 1) and SUTP compounds on mature tartar removal on human teeth were studied. 5 mL of each aqueous suspension were added to a 20 mL vial, and a tooth with tartar was added to each vial. Then, the solutions were stirred for 10 min at room temperature. After 10 minutes the teeth were brushed using a soft toothbrush and a photo of the tooth were taken.
SMILES,mature tartar removal (images before and after treatment) [1],precipitate of tartar during incubation [2],cleaning of teeth from tartar (photographs) [2],"cloudiness of the solution after the teeth brushing (tartar removed from the teeth) ([1]; 1 mg/ml, solution captured after teeth brushing)","tartar removal from tooth ([3]; 1 mg/mL, pH 3-4, 10 min stirring and brushing)","tartar removal from tooth ([3]; 1 mg/mL, pH 6-7, 10 min stirring and brushing)","tartar removal from tooth ([3]; 10 mg/mL, pH 3-4, 10 min stirring and brushing)"
"O=P([O-])([O-])OP(=O)([O-])[O-].[Na+].[Na+].[Na+].[Na+] [Sodium pyrophosphate tetrabasic, sodium pyrophosphate tetrabasic, reference compound]",did not remove the mature tartar,–,–,–,–,–,–
NC(CCC(O)(P(=O)(O)O)P(=O)(O)O)C(=O)O (centres unmarked) [γ-Glu-BP],–,a new precipitate of tartar was observed spontaneously,cleaning of dirty teeth from tartar,–,–,–,–
"O=P(O)(O)C(O)(CCC(O)(P(=O)(O)O)P(=O)(O)O)P(=O)(O)O [SUTP, Succinyl tetra phosphonate]",a significant mature tartar was removed,a new precipitate of tartar was observed spontaneously,cleaning of dirty teeth from tartar,significantly cloudier than the others,partially clean,partially clean,completely clean
"O=P([O-])(O)OP(=O)([O-])O.[Na+].[Na+] [Sodium pyrophosphate dibasic, sodium pyrophosphate dibasic, reference compound]",did not remove the mature tartar,–,–,–,–,–,–
